Starred links: 1 amine or outer side, 2 acyl side, 3 side chain; linkers in the order of their positions; H or OH if unused. Positions of bridges follow the written chain, without caps; N, C: chain ends. Residues, ends and D or L forms follow the SMILES beside them. *: point of attachment. C18 diacid = O=C(O)CCCCCCCCCCCCCCCCC(=O)*; γGlu = O=C(O)[C@H](CCC(=O)[*:2])N[*:1]; AEEA = NCCOCCOCC(=O)O
What follows are molecules tested against T1, human natriuretic peptide receptor 2 (hNPR2) (Homo sapiens, UniProt P20594) (assay: In vitro hNPR2 activity assay (cGMP GloSensor reporter, HEK293)). Settings: potency relative to CNP22 (0065).
T1 construct: expressed in transfected cells; host or cells: HEK293 (ATCC CRL-1573), clone 35, co-transfected with pGloSensor-42F
T1 sequence (P20594 23-1047): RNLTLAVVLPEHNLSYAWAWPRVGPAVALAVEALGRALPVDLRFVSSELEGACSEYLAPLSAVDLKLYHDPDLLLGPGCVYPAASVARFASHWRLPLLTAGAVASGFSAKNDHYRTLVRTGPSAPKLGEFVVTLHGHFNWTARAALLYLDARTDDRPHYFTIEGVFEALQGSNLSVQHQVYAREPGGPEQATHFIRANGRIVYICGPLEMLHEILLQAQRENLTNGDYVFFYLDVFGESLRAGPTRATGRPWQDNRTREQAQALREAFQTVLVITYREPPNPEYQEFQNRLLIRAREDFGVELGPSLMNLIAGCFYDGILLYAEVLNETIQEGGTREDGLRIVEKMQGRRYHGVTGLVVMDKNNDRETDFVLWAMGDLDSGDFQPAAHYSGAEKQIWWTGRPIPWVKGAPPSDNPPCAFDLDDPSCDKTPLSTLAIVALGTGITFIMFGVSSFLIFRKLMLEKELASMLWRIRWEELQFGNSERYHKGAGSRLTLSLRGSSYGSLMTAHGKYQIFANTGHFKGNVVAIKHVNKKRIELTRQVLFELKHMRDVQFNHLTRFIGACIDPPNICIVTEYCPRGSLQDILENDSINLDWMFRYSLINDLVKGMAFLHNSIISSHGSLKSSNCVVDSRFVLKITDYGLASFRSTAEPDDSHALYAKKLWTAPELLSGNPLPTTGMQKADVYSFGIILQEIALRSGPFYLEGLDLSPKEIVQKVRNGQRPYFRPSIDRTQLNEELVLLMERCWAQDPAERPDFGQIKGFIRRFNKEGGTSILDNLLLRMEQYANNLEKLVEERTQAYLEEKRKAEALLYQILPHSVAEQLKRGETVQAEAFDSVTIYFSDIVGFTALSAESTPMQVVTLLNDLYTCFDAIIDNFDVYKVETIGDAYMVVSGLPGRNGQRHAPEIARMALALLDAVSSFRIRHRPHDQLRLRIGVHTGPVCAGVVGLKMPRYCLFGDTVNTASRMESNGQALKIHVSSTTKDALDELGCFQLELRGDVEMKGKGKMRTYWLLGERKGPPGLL
Format: cell-based
Summary of the method: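 Potency is the EC50 from a four-parameter logistic fit, also expressed relative to the in-plate CNP22 control (×100), with at least two replicates. Compounds (ten concentrations, […], HSA-free diluent with 1% OVA, 0.01% Tween20) were incubated 30 min at 37 °C on HEK293 cells co-expressing hNPR2 and a GloSensor cGMP luciferase. Luminescence detected with Bright-Glo.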

SMILES	hNPR2 0% HSA. [EC50% rel CNP] [%]
CC[C@H](C)[C@@H]1NC(=O)[C@H](CCCNC(=N)N)NC(=O)[C@H](CC(=O)O)NC(=O)[C@H](CC(C)C)NC(=O)[C@@H]2CCCN2C(=O)[C@H](CC(C)C)NC(=O)CNC(=O)[C@H](Cc2ccccc2)NC(=O)[C@@H](NC(=O)CNC(=O)[C@H](CCCCN)NC(=O)[C@H](CO)NC(=O)[C@@H](NC(=O)CNC(=O)[C@@H](NC(=O)[C@H](CCCCN)NC(=O)[C@H](CCC(N)=O)NC(=O)[C@H](C)NC(=O)CNC(=O)[C@H](Cc2c[nH]cn2)NC(=O)[C@H](Cc2ccc(O)cc2)NC(=O)[C@H](CCCCN)NC(=O)[C@H](CCCNC(=N)N)NC(=O)[C@H](C)NC(=O)COCCOCCNC(=O)COCCOCCNC(=O)CC[C@H](NC(=O)CC[C@H](NC(=O)CC[C@H](NC(=O)CCCCCCCCCCCCCCCCC(=O)O)C(=O)O)C(=O)O)C(=O)O)[C@@H](C)O)C(C)C)CSSC[C@@H](C(=O)O)NC(=O)CNC(=O)[C@H](CC(C)C)NC(=O)CNC(=O)[C@H](CO)NC(=O)[C@H](CC(C)C)NC(=O)[C@H](CO)NC(=O)CNC1=O [compound 1423] ({C18 diacid-γGlu-γGlu-γGlu-AEEA-AEEA}-ARKYHGAQKTGVSKGCFGLPLDRIGSLSGLGC-OH; disulfide 16-32)	37.7
CC[C@H](C)[C@@H]1NC(=O)[C@H](CCCNC(=N)N)NC(=O)[C@H](CC(=O)O)NC(=O)[C@H](CC(C)C)NC(=O)[C@@H]2CCCN2C(=O)[C@H](CC(C)C)NC(=O)CNC(=O)[C@H](Cc2ccccc2)NC(=O)[C@@H](NC(=O)CNC(=O)[C@H](CCCCN)NC(=O)[C@H](CO)NC(=O)[C@@H](NC(=O)CNC(=O)[C@@H](NC(=O)[C@H](CCCCN)NC(=O)[C@H](CCC(N)=O)NC(=O)[C@H](C)NC(=O)CNC(=O)[C@H](CCCCN)NC(=O)[C@H](Cc2ccc(O)cc2)NC(=O)[C@H](CCCCN)NC(=O)[C@H](CCCNC(=N)N)NC(=O)[C@H](C)NC(=O)COCCOCCNC(=O)COCCOCCNC(=O)CC[C@H](NC(=O)CC[C@H](NC(=O)CC[C@H](NC(=O)CC[C@H](NC(=O)CCCCCCCCCCCCCCCCC(=O)O)C(=O)O)C(=O)O)C(=O)O)C(=O)O)[C@@H](C)O)C(C)C)CSSC[C@@H](C(=O)O)NC(=O)CNC(=O)[C@H](CC(C)C)NC(=O)CNC(=O)[C@H](CO)NC(=O)[C@H](CC(C)C)NC(=O)[C@H](CO)NC(=O)CNC1=O [compound 1424] ({C18 diacid-γGlu-γGlu-γGlu-γGlu-AEEA-AEEA}-ARKYKGAQKTGVSKGCFGLPLDRIGSLSGLGC-OH; disulfide 16-32)	36.2
CC[C@H](C)[C@@H]1NC(=O)[C@H](CCCNC(=N)N)NC(=O)[C@H](CC(=O)O)NC(=O)[C@H](CC(C)C)NC(=O)[C@@H]2CCCN2C(=O)[C@H](CC(C)C)NC(=O)CNC(=O)[C@H](Cc2ccccc2)NC(=O)[C@@H](NC(=O)CNC(=O)[C@H](CCCCN)NC(=O)[C@H](CO)NC(=O)[C@@H](NC(=O)CNC(=O)[C@@H](NC(=O)[C@H](CCCCN)NC(=O)[C@H](CCC(N)=O)NC(=O)[C@H](C)NC(=O)CNC(=O)[C@H](Cc2c[nH]cn2)NC(=O)[C@H](Cc2ccc(O)cc2)NC(=O)COCCOCCNC(=O)COCCOCCNC(=O)COCCOCCNC(=O)COCCOCCNC(=O)CC[C@H](NC(=O)CC[C@H](NC(=O)CCCCCCCCCCCCCCCCC(=O)O)C(=O)O)C(=O)O)[C@@H](C)O)C(C)C)CSSC[C@@H](C(=O)O)NC(=O)CNC(=O)[C@H](CC(C)C)NC(=O)CNC(=O)[C@H](CO)NC(=O)[C@H](CC(C)C)NC(=O)[C@H](CO)NC(=O)CNC1=O [compound 1425] ({C18 diacid-γGlu-γGlu-AEEA-AEEA-AEEA-AEEA}-YHGAQKTGVSKGCFGLPLDRIGSLSGLGC-OH; disulfide 13-29)	26.4
CC[C@H](C)[C@@H]1NC(=O)[C@H](CCCNC(=N)N)NC(=O)[C@H](CC(=O)O)NC(=O)[C@H](CC(C)C)NC(=O)[C@@H]2CCCN2C(=O)[C@H](CC(C)C)NC(=O)CNC(=O)[C@H](Cc2ccccc2)NC(=O)[C@@H](NC(=O)CNC(=O)[C@H](Cc2c[nH]cn2)NC(=O)[C@H](CO)NC(=O)CNC(=O)CNC(=O)[C@H](CCCCN)NC(=O)[C@H](CCCCN)NC(=O)[C@H](CCC(N)=O)NC(=O)[C@H](C)NC(=O)CNC(=O)[C@H](CCC(=O)O)NC(=O)[C@H](Cc2ccc(O)cc2)NC(=O)COCCOCCNC(=O)COCCOCCNC(=O)COCCOCCNC(=O)COCCOCCNC(=O)CC[C@H](NC(=O)CCCCCCCCCCCCCCCCC(=O)O)C(=O)O)CSSC[C@@H](C(=O)O)NC(=O)CNC(=O)[C@H](CC(C)C)NC(=O)CNC(=O)[C@H](CO)NC(=O)[C@H](CC(C)C)NC(=O)[C@H](CO)NC(=O)CNC1=O [compound 1431] ({C18 diacid-γGlu-AEEA-AEEA-AEEA-AEEA}-YEGAQKKGGSHGCFGLPLDRIGSLSGLGC-OH; disulfide 13-29; C-terminus assumed)	14.3
CC[C@H](C)[C@@H]1NC(=O)[C@H](CCCNC(=N)N)NC(=O)[C@H](CC(=O)O)NC(=O)[C@H](CC(C)C)NC(=O)[C@@H]2CCCN2C(=O)[C@H](CC(C)C)NC(=O)CNC(=O)[C@H](Cc2ccccc2)NC(=O)[C@@H](NC(=O)CNC(=O)[C@H](CCC(N)=O)NC(=O)[C@H](CO)NC(=O)[C@@H](NC(=O)CNC(=O)[C@H](CCCCN)NC(=O)[C@H](CCCCN)NC(=O)[C@H](CCC(N)=O)NC(=O)[C@H](C)NC(=O)CNC(=O)[C@H](CCCCN)NC(=O)[C@H](Cc2ccc(O)cc2)NC(=O)COCCOCCNC(=O)COCCOCCNC(=O)COCCOCCNC(=O)COCCOCCNC(=O)CC[C@H](NC(=O)CC[C@H](NC(=O)CCCCCCCCCCCCCCCCC(=O)O)C(=O)O)C(=O)O)C(C)C)CSSC[C@@H](C(=O)O)NC(=O)CNC(=O)[C@H](CC(C)C)NC(=O)CNC(=O)[C@H](CO)NC(=O)[C@H](CC(C)C)NC(=O)[C@H](CO)NC(=O)CNC1=O [compound 1436] ({C18 diacid-γGlu-γGlu-AEEA-AEEA-AEEA-AEEA}-YKGAQKKGVSQGCFGLPLDRIGSLSGLGC-OH; disulfide 13-29; C-terminus assumed)	30.2
CC[C@H](C)[C@@H]1NC(=O)[C@H](CCCNC(=N)N)NC(=O)[C@H](CC(=O)O)NC(=O)[C@H](CC(C)C)NC(=O)[C@@H]2CCCN2C(=O)[C@H](CC(C)C)NC(=O)CNC(=O)[C@H](Cc2ccccc2)NC(=O)[C@@H](NC(=O)CNC(=O)[C@H](CCC(N)=O)NC(=O)[C@H](CO)NC(=O)[C@@H](NC(=O)CNC(=O)[C@H](CCCCN)NC(=O)[C@H](CCCCN)NC(=O)[C@H](CCC(N)=O)NC(=O)[C@H](C)NC(=O)CNC(=O)[C@H](Cc2c[nH]cn2)NC(=O)[C@H](Cc2ccc(O)cc2)NC(=O)COCCOCCNC(=O)COCCOCCNC(=O)COCCOCCNC(=O)COCCOCCNC(=O)CC[C@H](NC(=O)CC[C@H](NC(=O)CCCCCCCCCCCCCCCCC(=O)O)C(=O)O)C(=O)O)C(C)C)CSSC[C@@H](C(=O)O)NC(=O)CNC(=O)[C@H](CC(C)C)NC(=O)CNC(=O)[C@H](CO)NC(=O)[C@H](CC(C)C)NC(=O)[C@H](CO)NC(=O)CNC1=O [compound 1437] ({C18 diacid-γGlu-γGlu-AEEA-AEEA-AEEA-AEEA}-YHGAQKKGVSQGCFGLPLDRIGSLSGLGC-OH; disulfide 13-29)	19.9
